Data reported in patent publication US9724448B2, “Materials for gastrointestinal obstruction prevention” (3-D MATRIX, LTD., priority 2013, dated 2017).
Like-named read-outs stand apart in the source and are kept apart here.

Legend:
Type in all cases: in vivo, human
[1] = tested on: gastric ESD-induced ulcers; test: Gastric ulcer stage by endoscopy (active, healing, scarring) after ESD and peptide application
Experimental: After the ESD procedure, a self-assembling peptide was administered to a target area in the subject. […] For every 1 cm^2 of tumor, 1 mL of self-assembling peptide RADA16, in the form of PuraMatrix™ peptide hydrogel by 3-D Matrix, LTD. (2.5 w/v percent) was applied to the ESD-induced ulcer using a catheter immediately after the procedure. A single dose proton pump inhibitor was administered in gastric ESD cases for 8 weeks beginning the morning of the procedure. Gastric ulcer stages were evaluated by endoscopy as active, healing or scarring at 1, 4, and 8 weeks after ESDs, and application of the self-assembling peptide. The primary endpoint was the rate of post-ESD bleeding. The secondary endpoints include the transitional rate to healing and scarring stages of gastric ESD-induced ulcers.

[2] = tested on: artificial ulcer after ESD of early-stage esophageal cancer; test: Stenosis prevention after endoscopic resection of esophageal cancer (artificial ulcer, 4/5 circumferential spread)
Experimental: Testing was performed on a subject having an ulcer (lesion) after an endoscopic resection of esophageal cancer. […] Endoscopic submucosal dissection was performed, which created an ulcer. […] A ⅘ circumferential spread may cause stenosis in the absence of applying a peptide solution to form a hydrogel. After confirming that there was no hemorrhaging in the artificial ulcer surface after an endoscopic resection, a catheter was passed through an endoscope, and a peptide solution such as PuraMatrix™ peptide hydrogel by 3-D Matrix, LTD. (2.5%, suitable dose (1 mL per 1 cm^2)) in a syringe was coated evenly over the ulcer surface. […] On the first week after surgery, an endoscope is used to review the area. At this time, as with the initial round, the peptide solution is coated evenly over the ulcer surface. For past cases, an endoscope was used to perform a third and fourth review of the area, in the fourth and eighth weeks, respectively, after surgery that induced stenosis, to judge the effectiveness of the peptide solution coating. […] The endoscope passage is possible in stenosis direction.

[3] = tested on: ESD-induced ulcer (esophageal, gastric, colorectal ESD)
Experimental: Testing was performed in human subjects in order to determine the ability of disclosed peptides to prevent gastrointestinal obstruction. Subjects who underwent esophageal, gastric, and colorectal endoscopic submucosal dissection (ESD) by nine endoscopists participated in the testing. Subjects receiving antithrombotic therapy were included in the study, but such medications were no longer being administered prior to the procedures. Cases with perforation and coagulopathy (international normalized ratio (INR)>3) despite anticoaculation management after heparin bridge therapy (HBT) were excluded. […] After the ESD procedure, a self-assembling peptide was administered to a target area in the subject. […] For every 1 cm^2 of tumor, 1 mL of self-assembling peptide RADA16, in the form of PuraMatrix™ peptide hydrogel by 3-D Matrix, LTD. (2.5 w/v percent) was applied to the ESD-induced ulcer using a catheter immediately after the procedure. A single dose proton pump inhibitor was administered in gastric ESD cases for 8 weeks beginning the morning of the procedure. Gastric ulcer stages were evaluated by endoscopy as active, healing or scarring at 1, 4, and 8 weeks after ESDs, and application of the self-assembling peptide. The primary endpoint was the rate of post-ESD bleeding. The secondary endpoints include the transitional rate to healing and scarring stages of gastric ESD-induced ulcers. Of the 117 subjects recruited, 114 patients with 124 lesions (esophagus 18; stomach 42; colorectum 64) were enrolled for outcome analysis and […] were excluded due to perforations and […].

Arg-Ala-Asp-Ala-Arg-Ala-Asp-Ala-Arg-Ala-Asp-Ala-Arg-Ala-Asp-Ala [PuraMatrix]
Transitional rate to healing stage ([1]; at 1 week after ESD, with proton pump inhibitor): 98% | scarring stage at follow up endoscopy ([1]; at 4 weeks after ESD): 21% | scarring stage at follow up endoscopy ([1]; at 8 weeks after ESD): 97% | endoscope passage in stenosis direction ([2]; 4 weeks after surgery): possible | ulcer state by endoscope ([2]; 4 weeks after surgery, 2.5%, 1 mL per 1 cm^2, coated at surgery and at first week): scarring | endoscope passage in stenosis direction ([2]; 8 weeks after surgery): possible | side effects of the endoscopic resection (delayed hemorrhaging, perforations) ([2]; one subject, esophageal ESD): no delayed hemorrhaging or perforations | rate of post-ESD bleeding ([3]; all lesions (2/124), 2.5 w/v percent, 1 mL per 1 cm^2, by catheter immediately after ESD): 1.6% | rate of post-ESD bleeding ([3]; colorectum (1/64; 0.02% to 1.6%)): 1.6% | rate of post-ESD bleeding ([3]; esophagus): 0% | adverse effects related with the use of the self-assembling peptide ([3]; in vivo): no adverse effects | rate of post-ESD bleeding ([3]; stomach (1/43; 95% confidence interval 0.04% to 12.3%)): 2.4%
